# Reference: patent publication US7045532B2 (Millennium Pharmaceuticals, Inc., priority 1999, dated 2006)
# Target: T1, ACE-2 (Homo sapiens, UniProt Q9BYF1)
# T1 construct: a stop codon inserted after the serine immediately preceding the transmembrane domain; made in house; host or cells: CHO K1 cells (transient transfection, purified from conditioned medium)
# Assay: ACE-2 Competitive Substrate Assay (ACS Assay)
# Format: biochemical
# Conditions: Ki class per key; compounds tested in 5% DMSO, 12 compound concentrations, 25° C.; Ki=Kiapp/(1+[S]/Km); read-out: Human ACE-2 Activity
# T1 sequence (Q9BYF1 18-740 limits assumed): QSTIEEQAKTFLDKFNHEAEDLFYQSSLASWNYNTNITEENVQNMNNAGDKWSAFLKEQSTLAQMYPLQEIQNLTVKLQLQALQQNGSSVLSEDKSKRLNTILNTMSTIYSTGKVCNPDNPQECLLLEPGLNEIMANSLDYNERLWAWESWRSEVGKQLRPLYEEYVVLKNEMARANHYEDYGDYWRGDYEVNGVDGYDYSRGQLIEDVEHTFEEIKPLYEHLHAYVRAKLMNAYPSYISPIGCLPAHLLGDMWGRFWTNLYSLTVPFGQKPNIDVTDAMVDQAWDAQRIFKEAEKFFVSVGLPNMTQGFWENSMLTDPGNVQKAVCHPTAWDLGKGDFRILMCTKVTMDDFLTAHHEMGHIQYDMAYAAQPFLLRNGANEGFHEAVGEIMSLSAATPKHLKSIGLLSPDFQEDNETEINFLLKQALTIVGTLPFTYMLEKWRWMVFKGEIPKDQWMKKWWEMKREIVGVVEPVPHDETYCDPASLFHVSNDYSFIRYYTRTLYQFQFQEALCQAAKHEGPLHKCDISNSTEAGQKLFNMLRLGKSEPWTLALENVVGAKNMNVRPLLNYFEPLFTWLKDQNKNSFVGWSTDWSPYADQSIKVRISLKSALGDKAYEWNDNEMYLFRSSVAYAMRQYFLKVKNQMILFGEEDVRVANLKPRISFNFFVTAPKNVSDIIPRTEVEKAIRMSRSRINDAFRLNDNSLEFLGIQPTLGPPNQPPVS
row,Ki [nM],SMILES
1,> 500,"CC(C)C[C@H](N[C@@H](Cc1ccccc1OCc1csc2ccc(Cl)cc12)C(=O)O)C(=O)O [QT, 2-{1-Carboxy-2-[2-(5-chloro-benzo[b]thiophen-3-ylmethoxy)-phenyl]-ethylamino}-4-methyl-pentanoic acid]"
2,< 100,"CC(C)C[C@H](N[C@@H](Cc1ccc(C(=O)OC(C)(C)C)cc1)C(=O)O)C(=O)O [PU, (S,S) 4-[2-Carboxy-2-(1-carboxy-3-methyl-butylamino)-ethyl]-benzoic acid tert-butyl ester]"
3,100 to 500,"CC(C)C[C@H](N[C@@H](Cc1ccc(Oc2ccccc2)cc1)C(=O)O)C(=O)O [QJ, 2-[1-Carboxy-2-(4-phenoxy-phenyl)-ethylamino]-4-methyl-pentanoic acid]"
4,< 100,"CC(C)C[C@H](N[C@@H](Cc1ccc(OCC2COc3ccc(F)cc32)cc1)C(=O)O)C(=O)O (stereo partly drawn) [QW, 2-[1-Carboxy-2-[4-(5-fluoro-2,3-dihydro-benzofuran-3-ylmethoxy)-phenyl]-ethylamino]-4-methyl-pentanoic acid]"
5,100 to 500,"CC(C)C[C@H](N[C@@H](Cc1ccc(-c2ccncc2)cc1)C(=O)O)C(=O)O [PK, (S,S)-2-[1-Carboxy-2-(4-pyridin-4-yl-phenyl)-ethylamino]-4-methyl-pentanoic acid]"
6,100 to 500,"CC(C)C[C@H](N[C@@H](Cc1ccccc1-c1cc(Cl)cc(Cl)c1)C(=O)O)C(=O)O [PT, S,S-2-[1-Carboxy-2-(3′,5′dichloro-biphenyl-2-yl)-ethylamino]-4-methyl-pentanoic acid]"
7,> 500,"CC(C)C[C@H](N[C@@H](CN1C(=O)CN(Cc2ccc(C(F)(F)F)cc2C(F)(F)F)C1=O)C(=O)O)C(=O)O [PY, 2-[2-[3-(2,4-Bis-trifluoromethyl-benzyl)-2,5-dioxo-imidazolidin-1-yl]-1-carboxy-ethylamino]-4-methyl-pentanoic acid]"

# Same assay, conditions: Ki class; compounds tested in 5% DMSO, 12 compound concentrations, Ki=Kiapp/(1+[S]/Km); read-out: Human ACE-2 Activity
row,Ki [nM],SMILES
1,< 100,"CC(C)C[C@H](N[C@@H](Cn1ccn(Cc2cc(F)ccc2F)c1=O)C(=O)O)C(=O)O [OW, 2-[1-Carboxy-2-[3-(2,5-difluoro-benzyl)-2-oxo-2,3-dihydro-imidazol-1-yl]-ethylamino]-4-methyl-pentanoic acid]"
2,100 to 500,"CCCCc1ccc(Cn2cncc2C[C@H](NC(CC(C)C)C(=O)O)C(=O)O)cc1 (single isomer, unassigned) [HI, 2-[2-[3-(4-Butyl-benzyl)-3H-imidazol-4-yl]-1-carboxy-ethylamino]-4-methyl-pentanoic acid]"
3,< 100,"C=CCOc1ccc(C[C@H](N[C@@H](CC(C)C)C(=O)O)C(=O)O)cc1 [LW, 2-[2-(4-Allyloxy-phenyl)-1-carboxy-ethylamino]-4-methyl-pentanoic acid]"
4,100 to 500,"CC(C)C[C@H](N[C@@H](Cc1csc(-c2cc(Cl)cc(Cl)c2)n1)C(=O)O)C(=O)O [LO, (S,S)-2-{1-Carboxy-2-[2-(3,5-dichlorophenyl)-thiazol-4-yl]-ethylamino}-4-methyl-pentanoic acid]"
5,> 500,"CC(C)C[C@H](N[C@@H](Cc1ccc(-c2cc(F)cc(F)c2)o1)C(=O)O)C(=O)O [NU, (S,S)-2-{1-Carboxy-2-[5-(3,5-difluoro-phenyl)-furan-2-yl]-ethylamino}-4-methyl-pentanoic acid]"
6,> 500,"COC(=O)[C@H](Cc1ccn(C(=O)OC(C)(C)C)n1)N[C@@H](CC(C)C)C(=O)OCc1ccccc1 [ML, 3-[2-(1-Benzyloxycarbonyl3-methyl-butylamino)-2-methoxycarbonyl-ethyl]-pyrazole-1-carboxylicacid tert-butyl ester]"
7,< 100,"Cc1ccc(-c2ccc(C[C@H](N[C@@H](CC(C)C)C(=O)O)C(=O)O)cc2)cc1 [NH, (S,S)-2-[1-Carboxy-2-(4′-methyl-biphenyl-4-yl)-ethylamino]-4-methyl-pentanoic acid]"
8,> 500,"CC(C)CC(N[C@@H](Cc1cncn1Cc1ccccc1CS(=O)(=O)c1ccccc1)C(=O)O)C(=O)O (single isomer, unassigned) [IA, 2-[2-[3-(2-Benzenesulfonylmethyl-benzyl)-3H-imidazol-4-yl]-1-carboxy-ethylamino]-4-methyl-pentanoic acid]"
9,100 to 500,"CC(C)C[C@H](N[C@@H](Cn1ccn(CCc2ccc(F)cc2)c1=O)C(=O)O)C(=O)O [NK, 2-(1-Carboxy-2-[3-[2-(4-fluoro-phenyl)-ethyl]-2-oxo2,3-dihydro-imidazol-1-yl)-ethylamino]-4-methyl-pentanoic acid]"
10,> 500,"CC(C)C[C@H](N[C@@H](Cc1cccc(OCc2ccccc2Cl)c1)C(=O)O)C(=O)O [OP, S,S-2-{1-Carboxy-2-[3-(2-chloro-benzyloxy)-phenyl]-ethylamino}-4-methyl-pentanoic acid]"
11,> 500,"CC(C)C[C@H](N[C@@H](CNC(=O)c1ccc(Cl)c(Cl)c1)C(=O)O)C(=O)O [LJ, (S,S)-2-[1-Carboxy-2-(3,4-dichloro-benzoylamino)-ethylamino]-4-methyl-pentanoic acid]"
12,100 to 500,"COc1ccc(-c2ccc(C[C@H](N[C@@H](CC(C)C)C(=O)O)C(=O)O)o2)cc1 [OI, (S,S)-2-{1-Carboxy-2-[5-(4-methoxy-phenyl)-furan-2-yl]-ethylamino}-4-methyl-pentanoic acid]"
13,> 500,"CC(C)C[C@H](N[C@@H](Cc1cccc(-c2ccsc2)c1)C(=O)O)C(=O)O [MJ, (S,S)-2-[1-Carboxy-2-(3-thiophen-3-yl-phenyl)-ethylamino]-4-methyl-pentanoic acid]"
14,> 500,"Cc1c(Cn2cncc2C[C@H](NC(CC(C)C)C(=O)O)C(=O)O)cccc1-c1ccccc1 (single isomer, unassigned) [IR, 2-[1-Carboxy-2-[3-(2-methyl-biphenyl-3-ylmethyl)-3H-imidazol-4-yl]-ethylamino)-4-methyl-pentanoic acid]"
15,> 500,"CC(C)C[C@H](N[C@@H](Cc1ccc(Cc2cc(Cl)cc(Cl)c2)cc1)C(=O)O)C(=O)O [OF, (S,S)-2-{1-Carboxy-2-[4-(3,5-dichloro-benzyl)-phenyl]-ethylamino}-4-methyl-pentanoic acid]"
16,> 500,"CCC(CC)Cn1cncc1C[C@H](NC(CC(C)C)C(=O)O)C(=O)O (single isomer, unassigned) [JN, 2-[1-Carboxy-2-[3-(2-ethylbutyl)-3H-imidazol-4-yl]-ethylamino]-4-methyl-pentanoic acid]"
17,100 to 500,"CCOC(=O)[C@H](Cc1cncn1Cc1cc(Cl)cc(Cl)c1)N[C@@H](CC(C)C)C(=O)O [MY, (S,S) 2-{2-[3-(3,5-Dichloro-benzyl)-3H-imidazol-4-yl]-1-ethoxycarbonyl-ethylamino}-4-methyl-pentanoic acid]"
18,> 500,"CC(C)C[C@H](N[C@@H](Cc1cccc(OCc2ccncc2)c1)C(=O)O)C(=O)O [NZ, S,S-2-{1-Carboxy-2-[3-(pyridin-4-ylmethoxy)-phenyl]-ethylamino}-4-methyl pentanoic acid]"
19,100 to 500,"CC(C)C[C@H](N[C@@H](Cn1ccn([C@@H](C)c2ccccc2)c1=O)C(=O)O)C(=O)O [LH, (S,S)-2-{1-Carboxy-2-[2-oxo-3-(1-phenyl-ethyl)-2,3-dihydro-imidazol-1-yl]-ethylamino}-4-methyl-pentanoic acid]"
20,> 500,"Cc1cc(C)cc(Cn2cncc2C[C@H](NC(CC(C)C)C(=O)O)C(=O)O)c1 (single isomer, unassigned) [HR, 2-[1-Carboxy-2-[3-(3,5-dimethyl-benzyl)-3H-imidazol-4-yl]-ethylamino)4-methyl-pentanoic acid]"
21,100 to 500,"CC(C)C[C@@H](N[C@H](Cc1cncn1Cc1cc(Cl)cc(Cl)c1)C(=O)O)C(=O)O [MZ, (R,R)-2-{1-Carboxy-2-[3-(3,5-dichloro-benzyl)-3H-imidazol-4-yl]-ethylamino}-4-methyl-pentanoic acid]"
22,< 100,"CC(C)C[C@H](N[C@@H](Cc1csc(-c2ccc3c(c2)CCO3)n1)C(=O)O)C(=O)O [KI, (S,S)-2-{1-Carboxy-2-[2(2,3-dihydro-benzofaran-5-yl]-thiazol-4-yl]-ethylamino}-4-methyl pentanoic acid]"
23,100 to 500,"Cc1nc(C[C@H](NC(CC(C)C)C(=O)O)C(=O)O)c(Cc2ccccc2)s1 (single isomer, unassigned) [KB, 2-[2-(5-Benzyl-2-methyl-thiazol-4-yl)-1-carboxy-ethylamino]-4-methyl-pentanoic acid]"
24,100 to 500,"Cc1cc(C)cc(COc2ccc(C[C@H](N[C@@H](CC(C)C)C(=O)O)C(=O)O)cc2)c1 [KT, 2-[1-Carboxy-2-[4-(3,5-dimethyl-benzyloxy)-phenyl]-ethylamino]-4-methyl-pentanoic acid]"
25,< 100,"CC(C)C[C@H](N[C@@H](Cc1csc(-c2ccc(F)c(Cl)c2)n1)C(=O)O)C(=O)O [KJ, (S,S)-2-{1-Carboxy-2-[2-(3-chloro-4-fluoro-phenyl)-thiazol-4-yl-]-ethylamino}-4-methyl-pentanoic acid]"
26,< 100,"CC(C)C[C@H](N[C@@H](Cc1cncn1Cc1cc(Cl)cc(Cl)c1)C(=O)O)C(=O)OC(C)(C)C [NM, 2-[1-Carboxy-2-[3-(3,5-dichloro-benzyl)-3H-imidazol-4-yl]-ethylamino)4-methyl-pentanoic acidtert-butyl ester]"

row,SMILES,Ki [nM]
1,"CCCCOC(=O)[C@H](Cc1cncn1Cc1cc(Cl)cc(Cl)c1)N[C@H](CC(C)C)C(=O)O [LE, 2-[1-Butoxycarbonyl-2-[3-(3,5-dichloro-benzyl)-3H-imidazol-4-yl]-ethylamino]4-methyl-pentanoic acid]",> 500

# Same assay, conditions: Ki class; compounds tested in 5% DMSO, 12 concentrations; read-out: Human ACE-2 Activity
row,Ki [nM],SMILES
1,> 500,"CC(C)CC(N[C@@H](Cc1csc(N)n1)C(=O)O)C(=O)O (single isomer, unassigned) [GU, 2-[2-(2-Amino-thiazol-4-yl)1-carboxy-ethylamino]-4-methyl-pentanoic acid]"

# Same assay, conditions: Table 3, very good ACE-2 inhibiting compounds; species not given; read-out: ACE-2 Activity, Ki
row,Ki [nM],SMILES
1,50 to 100,"CC(C)C[C@H](N[C@@H](Cn1ccn(Cc2cc(F)ccc2F)c1=O)C(=O)O)C(=O)O [OW, 2-[1-Carboxy-2-[3-(2,5-difluoro-benzyl)-2-oxo-2,3-dihydro-imidazol-1-yl]-ethylamino]-4-methyl-pentanoic acid]"
2,50 to 100,"C=CCOc1ccc(C[C@H](N[C@@H](CC(C)C)C(=O)O)C(=O)O)cc1 [LW, 2-[2-(4-Allyloxy-phenyl)-1-carboxy-ethylamino]-4-methyl-pentanoic acid]"
3,< 50,"Cc1ccc(-c2ccc(C[C@H](N[C@@H](CC(C)C)C(=O)O)C(=O)O)cc2)cc1 [NH, (S,S)-2-[1-Carboxy-2-(4′-methyl-biphenyl-4-yl)-ethylamino]-4-methyl-pentanoic acid]"
4,< 50,"CC(C)C[C@H](N[C@@H](Cc1ccc(OCC2COc3ccc(F)cc32)cc1)C(=O)O)C(=O)O (stereo partly drawn) [QW, 2-[1-Carboxy-2-[4-(5-fluoro-2,3-dihydro-benzofuran-3-ylmethoxy)-phenyl]-ethylamino]-4-methyl-pentanoic acid]"
5,50 to 100,"CC(C)C[C@H](N[C@@H](Cc1csc(-c2ccc3c(c2)CCO3)n1)C(=O)O)C(=O)O [KI, (S,S)-2-{1-Carboxy-2-[2(2,3-dihydro-benzofaran-5-yl]-thiazol-4-yl]-ethylamino}-4-methyl pentanoic acid]"
6,50 to 100,"CC(C)C[C@H](N[C@@H](Cc1csc(-c2ccc(F)c(Cl)c2)n1)C(=O)O)C(=O)O [KJ, (S,S)-2-{1-Carboxy-2-[2-(3-chloro-4-fluoro-phenyl)-thiazol-4-yl-]-ethylamino}-4-methyl-pentanoic acid]"
7,< 50,"CC(C)C[C@H](N[C@@H](Cc1cncn1Cc1cc(Cl)cc(Cl)c1)C(=O)O)C(=O)OC(C)(C)C [NM, 2-[1-Carboxy-2-[3-(3,5-dichloro-benzyl)-3H-imidazol-4-yl]-ethylamino)4-methyl-pentanoic acidtert-butyl ester]"
